Assay results taken from patent US12054498B2, “Heteroaromatic macrocyclic ether chemotherapeutic agents” (Nuvalent, Inc., priority 2020, dated 2024).
Where two headings read alike, the source gives them in different places.

Experiments:
[1] = from Cc1nn(CC2CC2)cc1Cc1nn(C)nc1-c1ccc(F)cc1C(CO[Si](C)(C)C(C)(C)C)Oc1cc(Br)cnc1N; cc_pd bond; 12-membered ring; Pd(OAc)2/cataCXium A/KOAc; 2-methyl-2-butanol; 30.0 mM; 120.0 °C
[2] = cc_pd bond, Pd(OAc)2/cataCXium A, KOAc, 2-methyl-2-butanol, 120.0 °C
[3] = tested on: ROS1-positive NSCLC; details: ROS1-positive NSCLC patients; cited from earlier work
[4] = from CCn1ccc(C(=O)c2nn(C)nc2-c2ccc(F)cc2[C@@H](C)Oc2cc(Br)cnc2N)c1; cc_pd bond; 12-membered ring; Pd(OAc)2/cataCXium A/KOAc; 2-methyl-2-butanol; 38.0 mM; 120.0 °C
[5] = target: T1, ALK-wt (Homo sapiens, UniProt Q9UM73); assay: Biochemical kinase assay, ALK-wt kinase domain; details: apparent inhibitory constant, Morrison equation; ATP 2 mM in substrate solution; read-out: ALK-wt Ki^app
T1 construct: purchased Carna 08-518
In short: (§1)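 Compound in DMSO added first, then substrate solution (ATP 2 mM; AQT0101 or AQT0104, 26 μM; pH 7.5 HEPES, 10 mM MgCl2), then kinase solution with enzyme at 0.5–3 nM depending on construct. Kinetic read every 2 min for 120 min at 30° C; Ki^app by Morrison regression.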

[6] = target: T2, ALK L1196M/G1202R (Homo sapiens, UniProt Q9UM73, G1202R/L1196M); assay: Biochemical kinase assay, ALK L1196M/G1202R kinase domain; details: apparent inhibitory constant, Morrison equation; ATP 2 mM in substrate solution; read-out: ALK-L1196M-G1202R Ki^app
T2 construct: purchased SignalChem A19-12NG
In short: as §1

[7] = target: T3, ROS1-wt (Homo sapiens, UniProt P08922); assay: Biochemical kinase assay, ROS1-wt kinase domain; details: apparent inhibitory constant, Morrison equation; ATP 2 mM in substrate solution; read-out: ROS1-wt Ki^app
T3 construct: purchased Carna 08-163
In short: (§2)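 Kinetic read: 485 nm, 2-min intervals, 120 min, 30 °C. Substrate mix — ATP 2 mM, AQT0101 26 μM, HEPES 50 mM pH 7.5, MgCl2 10 mM. Output: Ki^app, Morrison equation.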

[8] = target: T4, ROS1-G2032R (Homo sapiens, UniProt P08922, G2032R); assay: Biochemical kinase assay, ROS1-G2032R kinase domain; details: apparent inhibitory constant, Morrison equation; ATP 2 mM in substrate solution; read-out: ROS1-G2032R Ki^app
T4 construct: purchased SignalChem R14-12BG
In short: as §2

[9] = target: T5, TRKA-wt (Homo sapiens, UniProt P04629); assay: Biochemical kinase assay, TRKA-wt kinase domain; details: apparent inhibitory constant, Morrison equation; ATP 2 mM in substrate solution; read-out: TRKA-wt Ki^app
T5 construct: or TRKA-wt (1 nM, BPS Bio, 40280) kinase domains in buffer; purchased BPS Bio 40280
In short: as §1

[10] = target: T6, Ba/F3 cells CD74-ROS1 wild-type (wt) (Homo sapiens, UniProt P08922); assay: Ba/F3 cell proliferation assay, CD74-ROS1 wild-type; assay type: cell-based; details: 72 hours, CellTiter-Glo
T6 construct: fusion of the C-terminus of ROS1 with the N-terminus of various partner proteins; host or cells: Ba/F3 (RIKEN), retroviral pMSCV-puro; the other entry of the earlier key: CD74 (P04233, HLA class II histocompatibility antigen gamma chain)
In short: (§3)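 Viability read by CellTiter-Glo luminescence after 72 h exposure to 3-fold serial compound dilutions, four-parameter logistic fitting giving IC50.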

[11] = target: T7, Ba/F3 cells CD74-ROS1 G2032R (Homo sapiens, UniProt P08922, G2032R); assay: Ba/F3 cell proliferation assay, CD74-ROS1 G2032R; assay type: cell-based; details: 72 hours, CellTiter-Glo
T7 construct: fusion of the C-terminus of ROS1 with the N-terminus of various partner proteins; host or cells: Ba/F3 (RIKEN), retroviral pMSCV-puro; the other entry of the earlier key: CD74 (P04233, HLA class II histocompatibility antigen gamma chain)
In short: as §3

[12] = target: T8, Ba/F3 cells EML4-ALK wt (variant 1) (Homo sapiens, UniProt Q9UM73); assay: Ba/F3 cell proliferation assay, EML4-ALK wt (variant 1); assay type: cell-based; details: 72 hours, CellTiter-Glo
T8 construct: echinoderm microtubule-associated protein-like 4 (EML4) gene and the ALK tyrosine kinase domain; host or cells: Ba/F3 (RIKEN), retroviral pMSCV-puro; the other entry of the earlier key: EML4 (Q9HC35, Echinoderm microtubule-associated protein-like 4)
In short: (§4)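 Stable fusion-expressing Ba/F3 clones, 1,000 cells/well. Compounds for 72 h, CellTiter-Glo readout; IC50 by 4-parameter logistic regression.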

[13] = target: T9, Ba/F3 cells EML4-ALK L1196M/G1202R (variant 1) (Homo sapiens, UniProt Q9UM73, G1202R/L1196M); assay: Ba/F3 cell proliferation assay, EML4-ALK L1196M/G1202R (variant 1); assay type: cell-based; details: 72 hours, CellTiter-Glo
T9 construct: echinoderm microtubule-associated protein-like 4 (EML4) gene and the ALK tyrosine kinase domain; host or cells: Ba/F3 (RIKEN), retroviral pMSCV-puro; the other entry of the earlier key: EML4 (Q9HC35, Echinoderm microtubule-associated protein-like 4)
In short: as §4

[14] = target: T10, Ba/F3 cells TPM3-TRKA (Homo sapiens, UniProt P04629); assay: Ba/F3 cell proliferation assay, TPM3-TRKA; assay type: cell-based; details: 72 hours, CellTiter-Glo, read-out: TPM3-NTRK1-wt IC50
T10 construct: host or cells: Ba/F3 (RIKEN), retroviral pMSCV-puro; the other entry of the earlier key: TPM3 (P06753, Tropomyosin alpha-3 chain)
In short: as §4

[15] = tested on: TPM3-NTRK1-wt IC50 / primary target IC50 (e.g. CD74-ROS1-wt); assay: TRKA selectivity in Ba/F3 cells (TRKA potency divided by primary target potency); assay type: cell-based; details: for TPM3-NTRK1-wt/CD74-ROS1-G2032R selectivity ratio: TRKA potency / CD74-ROS1-G2032R potency; for TPM3-NTRK1-wt/CD74-ROS1-wt selectivity ratio: TRKA potency / CD74-ROS1-wt potency; for TPM3-NTRK1-wt/EML4-ALK-L1196M-G1202R selectivity ratio: TRKA potency / EML4-ALK-L1196M-G1202R potency; for TPM3-NTRK1-wt/EML4-ALK-wt selectivity ratio: TRKA potency / EML4-ALK-wt potency
Description: TRKA selectivity was calculated by dividing a compound's TRKA potency by its primary target potency (e.g. TPM3-NTRK1-wt IC50/CD74-ROS1-wt IC50). Compound selectivity can be interpreted by binning ratio values: bin A for very high selectivity, ratio >30-fold; bin B for high selectivity, ratio >10-fold; bin C for moderate selectivity, ratio ≥1; and bin D for low selectivity, ratio <1. […] (nd=not determined).

T2 sequence (Q9UM73 1116-1392 L1196M/G1202R limits assumed): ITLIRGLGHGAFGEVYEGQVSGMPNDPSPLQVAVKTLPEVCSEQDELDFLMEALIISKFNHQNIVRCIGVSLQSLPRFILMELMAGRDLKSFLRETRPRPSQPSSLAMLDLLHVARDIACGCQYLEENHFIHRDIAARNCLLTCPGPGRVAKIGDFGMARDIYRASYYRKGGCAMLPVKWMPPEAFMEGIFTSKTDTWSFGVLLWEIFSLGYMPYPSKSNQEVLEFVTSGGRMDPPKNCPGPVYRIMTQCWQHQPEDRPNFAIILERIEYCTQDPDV
T4 sequence (P08922 1945-2222 G2032R limits assumed): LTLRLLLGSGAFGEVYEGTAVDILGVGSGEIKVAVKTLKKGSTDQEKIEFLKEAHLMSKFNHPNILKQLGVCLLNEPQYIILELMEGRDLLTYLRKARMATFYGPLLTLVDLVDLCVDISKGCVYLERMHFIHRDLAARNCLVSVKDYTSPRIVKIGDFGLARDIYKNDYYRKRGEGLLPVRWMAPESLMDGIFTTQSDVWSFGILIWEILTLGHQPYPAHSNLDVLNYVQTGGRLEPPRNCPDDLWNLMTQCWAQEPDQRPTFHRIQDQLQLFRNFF
T5 sequence (P04629 510-781 limits assumed): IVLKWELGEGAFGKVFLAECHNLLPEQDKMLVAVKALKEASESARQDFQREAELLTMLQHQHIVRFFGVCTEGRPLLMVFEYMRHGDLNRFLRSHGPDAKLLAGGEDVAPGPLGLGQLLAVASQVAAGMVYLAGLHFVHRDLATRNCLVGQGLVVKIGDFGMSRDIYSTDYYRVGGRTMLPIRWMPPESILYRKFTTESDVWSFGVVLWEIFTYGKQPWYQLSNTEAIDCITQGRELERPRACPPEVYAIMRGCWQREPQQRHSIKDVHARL
T1 sequence (Q9UM73 1116-1392 limits assumed): as the sequence (Q9UM73 1116-1392 L1196M/G1202R limits assumed) above, with M81L, R87G counted along it
T6 sequence (P08922 1883-2347 limits assumed): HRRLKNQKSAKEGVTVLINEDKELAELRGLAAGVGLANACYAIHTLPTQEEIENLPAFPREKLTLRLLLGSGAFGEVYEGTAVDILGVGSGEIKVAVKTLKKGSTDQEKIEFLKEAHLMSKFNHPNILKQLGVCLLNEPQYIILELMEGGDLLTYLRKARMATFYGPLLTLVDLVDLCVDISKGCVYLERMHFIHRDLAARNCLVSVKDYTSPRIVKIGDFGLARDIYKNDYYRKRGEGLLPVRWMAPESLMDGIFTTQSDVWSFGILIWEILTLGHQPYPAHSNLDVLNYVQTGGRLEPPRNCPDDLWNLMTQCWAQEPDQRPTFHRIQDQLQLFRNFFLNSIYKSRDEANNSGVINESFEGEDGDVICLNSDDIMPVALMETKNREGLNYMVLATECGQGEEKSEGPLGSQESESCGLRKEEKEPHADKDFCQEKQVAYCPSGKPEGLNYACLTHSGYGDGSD
T3 sequence (P08922 1945-2222 limits assumed): as the sequence (P08922 1945-2222 G2032R limits assumed) above, with R88G counted along it
T7 sequence (P08922 1883-2347 G2032R limits assumed): as the sequence (P08922 1883-2347 limits assumed) above, with G150R counted along it
T8 sequence (Q9UM73 with tags, fused parts or gaps): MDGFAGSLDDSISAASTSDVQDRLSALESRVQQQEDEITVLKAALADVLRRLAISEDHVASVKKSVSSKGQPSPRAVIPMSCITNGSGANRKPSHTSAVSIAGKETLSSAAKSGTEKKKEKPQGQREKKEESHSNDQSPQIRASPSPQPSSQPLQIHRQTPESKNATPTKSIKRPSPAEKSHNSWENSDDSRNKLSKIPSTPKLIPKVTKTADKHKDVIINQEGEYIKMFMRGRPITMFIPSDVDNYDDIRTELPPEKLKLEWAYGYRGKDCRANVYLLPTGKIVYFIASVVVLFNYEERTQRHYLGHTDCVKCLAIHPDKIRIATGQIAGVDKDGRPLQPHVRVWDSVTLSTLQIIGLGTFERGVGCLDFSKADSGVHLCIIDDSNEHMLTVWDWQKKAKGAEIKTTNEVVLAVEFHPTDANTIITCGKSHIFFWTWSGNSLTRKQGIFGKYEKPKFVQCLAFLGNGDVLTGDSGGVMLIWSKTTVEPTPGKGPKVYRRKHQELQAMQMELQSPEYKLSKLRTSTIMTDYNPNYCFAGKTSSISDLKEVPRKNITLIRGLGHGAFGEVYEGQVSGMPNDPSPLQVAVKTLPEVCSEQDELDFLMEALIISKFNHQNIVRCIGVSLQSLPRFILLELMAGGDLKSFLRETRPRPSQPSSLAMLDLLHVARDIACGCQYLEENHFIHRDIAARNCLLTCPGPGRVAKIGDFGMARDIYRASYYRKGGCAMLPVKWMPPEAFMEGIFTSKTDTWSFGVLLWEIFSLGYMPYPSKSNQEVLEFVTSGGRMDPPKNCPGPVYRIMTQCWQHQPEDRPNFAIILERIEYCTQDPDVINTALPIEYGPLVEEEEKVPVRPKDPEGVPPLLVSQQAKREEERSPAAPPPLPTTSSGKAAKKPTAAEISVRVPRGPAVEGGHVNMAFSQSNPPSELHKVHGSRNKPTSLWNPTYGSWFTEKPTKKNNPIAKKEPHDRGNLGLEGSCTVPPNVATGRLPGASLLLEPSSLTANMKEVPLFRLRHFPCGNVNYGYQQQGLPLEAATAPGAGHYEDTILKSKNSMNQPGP
T10 sequence (P04629 510-796 limits assumed): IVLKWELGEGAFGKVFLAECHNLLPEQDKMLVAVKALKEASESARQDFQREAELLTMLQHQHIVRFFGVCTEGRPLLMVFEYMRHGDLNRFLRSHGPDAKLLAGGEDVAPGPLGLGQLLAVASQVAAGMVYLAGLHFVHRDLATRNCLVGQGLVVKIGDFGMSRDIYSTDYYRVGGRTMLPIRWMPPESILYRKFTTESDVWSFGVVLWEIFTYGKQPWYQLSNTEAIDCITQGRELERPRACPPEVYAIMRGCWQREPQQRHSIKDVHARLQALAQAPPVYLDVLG
T9 sequence (Q9UM73 with tags, fused parts or gaps L1196M/G1202R): as the sequence (Q9UM73 with tags, fused parts or gaps) above, with L635M, G641R counted along it

Ki [5] [µM] | Ki [6] [µM] | Ki [7] [µM] | Ki [8] [µM] | Ki [9] [µM] | IC50 [10] [µM] | IC50 [11] [µM] | IC50 [12] [µM] | IC50 [13] [µM] | IC50 [14] [µM] | Structure (SMILES) | TPM3-NTRK1-wt/CD74-ROS1-G2032R selectivity ratio [15] | TPM3-NTRK1-wt/CD74-ROS1-wt selectivity ratio [15] | TPM3-NTRK1-wt/EML4-ALK-L1196M-G1202R selectivity ratio [15] | TPM3-NTRK1-wt/EML4-ALK-wt selectivity ratio [15] | also measured
 |  |  |  |  |  |  |  |  |  | Cc1nn(CC2CC2)c2c1Cc1nn(C)nc1-c1ccc(F)cc1C(CO[Si](C)(C)C(C)(C)C)Oc1cc-2cnc1N (stereo not shown) |  |  |  |  | ring closure, isolated yield [1]: 23%; ring closure, yield of all isomers ([2]; from Cc1nn(CC2CC2)cc1Cc1nn(C)nc1-c1ccc(F)cc1C(CO[Si](C)(C)C(C)(C)C)Oc1cc(Br)cnc1N, 30.0 mM): 23%
 |  |  |  |  |  |  |  |  |  | C[C@@H](Oc1cc(-c2cnn(C3CCNCC3)c2)cnc1N)c1c(Cl)ccc(F)c1Cl [Crizotinib, crizotinib] |  |  |  |  | median progression-free survival [3]: 9-19 months; overall response rate [3]: 60-80%
 |  |  |  |  |  |  |  |  |  | CCn1ccc2c1-c1cnc(N)c(c1)O[C@H](C)c1cc(F)ccc1-c1nn(C)nc1C2=O |  |  |  |  | ring closure, yield after HPLC [4]: 15%; ring closure, yield of all isomers ([2]; from CCn1ccc(C(=O)c2nn(C)nc2-c2ccc(F)cc2[C@@H](C)Oc2cc(Br)cnc2N)c1, 38.0 mM, 12.0 h): 15%
< 0.05 | < 0.05 | < 0.05 | < 0.05 | > 0.5 | 0.0001 to 0.05 | 0.0001 to 0.05 | 0.0001 to 0.05 | 0.05 to 0.5 | > 0.5 | C[C@H]1Oc2cc(cnc2N)-c2c(CC3CC3)nn(C)c2Cn2ncnc2-c2ccc(F)cc21 [Example 99, (19R)-3-(cyclopropylmethyl)-16-fluoro-5,19-dimethyl-20-oxa-4,5,8,9,11,23-hexaazapentacyclo[19.3.1.0^2,^6.0^8,^12.0^13,^18]pentacosa-1(24),2(6),3,9,11,13,15.17,21(25),22-decaen-22-amine] | A (bin A for very high selectivity, ratio >30-fold) | A (bin A for very high selectivity, ratio >30-fold) | B (bin B for high selectivity, ratio >10-fold) | A (bin A for very high selectivity, ratio >30-fold) | 
< 0.05 | < 0.05 | < 0.05 | < 0.05 | 0.05 to 0.5 | 0.0001 to 0.05 | 0.0001 to 0.05 | 0.0001 to 0.05 | 0.05 to 0.5 | 0.05 to 0.5 | CCn1ncc2c1-c1cnc(N)c(c1)O[C@H](C)c1cc(F)ccc1-n1ccnc1C2 [Example 42, (19R)-3-ethyl-16-fluoro-19-methyl-20-oxa-3,4,9,12,23-pentaazapentacyclo[19.3.1.0^2,^6.0^8,^12.0^13,^18]pentacosa-1(24),2(6),4,8,10,13,15,17,21(25),22-decaen-22-amine] | A (bin A for very high selectivity, ratio >30-fold) | A (bin A for very high selectivity, ratio >30-fold) | C (bin C for moderate selectivity, ratio ≥1) | B (bin B for high selectivity, ratio >10-fold) | 
